US10196668B2, “Reagents and methods for screening MPS I, II, IIIA, IIIB, IVA, VI, and VII” (University of Washington through its Center for …, priority 2013, dated 2019)
Where a name gives a salt, the structure may show the parent alone.

What was measured:
Assay type in all cases: biochemical
[1] = target: T1, iduronate-2-sulfatase (MPS-II enzyme) (Homo sapiens, UniProt P22304); test: MPS-II enzyme assay with dried blood spot punch, tandem mass spectrometry
T1 construct: from tissue; host or cells: dried blood spot (3 mm punch)
T1 sequence (P22304 34-550): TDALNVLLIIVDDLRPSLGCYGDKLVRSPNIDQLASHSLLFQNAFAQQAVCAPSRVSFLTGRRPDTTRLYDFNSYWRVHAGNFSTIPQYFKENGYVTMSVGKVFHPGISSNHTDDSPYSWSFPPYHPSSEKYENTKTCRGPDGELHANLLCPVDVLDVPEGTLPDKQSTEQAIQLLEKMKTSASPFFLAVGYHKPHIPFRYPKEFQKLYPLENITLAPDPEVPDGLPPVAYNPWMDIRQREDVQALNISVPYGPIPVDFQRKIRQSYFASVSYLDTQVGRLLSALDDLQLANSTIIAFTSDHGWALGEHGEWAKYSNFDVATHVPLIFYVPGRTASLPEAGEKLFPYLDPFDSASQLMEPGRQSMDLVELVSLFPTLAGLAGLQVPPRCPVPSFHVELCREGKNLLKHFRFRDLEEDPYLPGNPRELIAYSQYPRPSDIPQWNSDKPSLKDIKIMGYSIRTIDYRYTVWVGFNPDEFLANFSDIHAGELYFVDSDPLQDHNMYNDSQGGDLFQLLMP
Description: The original and alternative MPS-II substrates were compared in side-by-side enzyme assays as follows: 1 mM substrate, 5 uM internal standard in 30 uL of buffer (100 mM ammonium formate, pH 4.0, 7.5 mM barium(II) acetate, 5.0 mM cerium(III) acetate). A 3 mm punch of a dried blood spot was added, and the mixtures were incubated with shaking for 16 hours at 37 deg C. The reactions were quenched by addition of 200 uL of 44 mM citric acid followed by addition of 400 uL ethyl acetate and 100 uL of water. After mixing up and down a few times with the pipet, the samples were centrifuged (10 min at 3000 rpm) to separate the liquid layers. A 200 uL portion of the upper ethyl acetate layer was transferred to a new well, and solvent was removed by evaporation with a stream of oil-free air. The residue was taken up in 100 uL of methanol/5 mM aqueous ammonium formate (80/20, v/v) and infused into the tandem mass spectrometer. The barium and cerium salts are present to precipitate free sulfate and phosphate present in the dried blood spot since these anions cause production inhibition of the MPS-II enzyme. The citric acid is used to acidify the mixture so that the carboxylate of the iduronic acid portion of the MPS-II product and internal standard is protonated and is extracted into ethyl acetate. […]

[2] = target: T2, N-acetylgalactosamine-4-sulfate-sulfatase (MPS-VI enzyme) (Homo sapiens, UniProt P15848); test: MPS-VI enzyme assay with dried blood spot punch, tandem mass spectrometry
T2 construct: from tissue; host or cells: dried blood spot (3 mm punch)
Description: The original and alternative MPS-VI substrates were compared in side-by-side enzyme assays as follows: 1 mM substrate, 10 uM internal standard in 30 uL of buffer (100 mM ammonium formate, pH 4.0, 7.5 mM barium(II) acetate, 5.0 mM cerium(III) acetate). A 3 mm punch of a dried blood spot was added, and the mixtures were incubated with shaking for 16 hours at 37 deg C. The reactions were quenched by addition of an aqueous suspension (1:1) of DEAE cellulose (Whatmann DE52) (100 uL), followed by addition of 400 uL of ethyl acetate. The mixture was mixed by up and down pipetting a few times and then centrifuged (10 min at 3000 rpm) to separate the liquid layers and pellet the DE52. A 300 uL portion of the upper ethyl acetate layer was transferred to a new well, and solvent was removed by evaporation with a stream of oil-free air. The residue was taken up in 100 uL of methanol/5 mM aqueous ammonium formate (80/20, v/v) and infused into the tandem mass spectrometer. The barium and cerium salts are present to precipitate free sulfate and phosphate present in the dried blood spot since these anions cause production inhibition of the MPS-VI enzyme. The DE52 is added to trap remaining substrate so only product and internal standard (which are charge neutral) are extracted into ethyl acetate. […]

[3] = target: T3, alpha-L-iduronidase (MPS-I enzyme) (Homo sapiens, UniProt P35475); test: MPS-I enzyme assay with dried blood spot punch, LC/MSMS
T3 construct: from tissue; host or cells: dried blood spot (3 mm punch)
T3 sequence (P35475 28-653): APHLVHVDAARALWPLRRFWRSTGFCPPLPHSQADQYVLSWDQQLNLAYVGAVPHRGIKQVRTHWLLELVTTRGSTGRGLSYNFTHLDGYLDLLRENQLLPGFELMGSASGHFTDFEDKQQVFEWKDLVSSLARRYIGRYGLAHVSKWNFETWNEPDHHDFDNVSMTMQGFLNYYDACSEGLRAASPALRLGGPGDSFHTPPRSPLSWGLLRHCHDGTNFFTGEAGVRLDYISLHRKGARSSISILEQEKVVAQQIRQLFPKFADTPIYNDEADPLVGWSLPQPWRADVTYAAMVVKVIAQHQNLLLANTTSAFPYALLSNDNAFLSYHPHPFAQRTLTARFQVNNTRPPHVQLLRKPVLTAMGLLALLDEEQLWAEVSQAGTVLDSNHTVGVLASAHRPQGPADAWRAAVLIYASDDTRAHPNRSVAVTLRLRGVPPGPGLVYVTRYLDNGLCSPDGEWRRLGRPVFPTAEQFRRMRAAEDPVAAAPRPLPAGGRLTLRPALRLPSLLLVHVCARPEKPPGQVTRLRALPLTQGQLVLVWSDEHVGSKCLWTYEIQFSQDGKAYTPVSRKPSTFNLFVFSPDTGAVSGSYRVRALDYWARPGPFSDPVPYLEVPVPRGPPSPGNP
Description: The original and alternative MPS-I substrates were compared in side-by-side enzyme assays as follows: 0.5 mM substrate, 3.5 uM internal standard in 30 uL of buffer (100 mM ammonium formate, pH 4.0). A 3 mm punch of a dried blood spot was added, and the mixtures were incubated with shaking for 16 hours at 37 deg C. The reactions were quenched by addition 120 uL of acetonitrile. The wells were centrifuged, and 120 uL of supernatant was transferred to a new well. The sample was diluted by addition of 120 uL of water, and 10 uL was injected onto the LC/MSMS system. The LC and MS/MS conditions are as published (Spacil, Z., Tatipaka, H., Barcenas, M., Scott, C. R., Turecek, F., Gelb, M. H. (2012) “High-Throughput Assay of 9 Lysosomal Enzymes for Newborn Screening.” Clinical Chemistry., 59 (3), […]). A blank assay is also carried out in which a blood-free 3 mm punch of filter paper is substituted for the dried blood spot. The blank is incubated and processed as above.

[4] = 1 mM substrate, 3 mm dried blood spot punch, pH 4.0, 16 hours at 37 deg C
[5] = activity with dried blood spot punch to that with blood-free punch

T2 sequence (P15848 37-533): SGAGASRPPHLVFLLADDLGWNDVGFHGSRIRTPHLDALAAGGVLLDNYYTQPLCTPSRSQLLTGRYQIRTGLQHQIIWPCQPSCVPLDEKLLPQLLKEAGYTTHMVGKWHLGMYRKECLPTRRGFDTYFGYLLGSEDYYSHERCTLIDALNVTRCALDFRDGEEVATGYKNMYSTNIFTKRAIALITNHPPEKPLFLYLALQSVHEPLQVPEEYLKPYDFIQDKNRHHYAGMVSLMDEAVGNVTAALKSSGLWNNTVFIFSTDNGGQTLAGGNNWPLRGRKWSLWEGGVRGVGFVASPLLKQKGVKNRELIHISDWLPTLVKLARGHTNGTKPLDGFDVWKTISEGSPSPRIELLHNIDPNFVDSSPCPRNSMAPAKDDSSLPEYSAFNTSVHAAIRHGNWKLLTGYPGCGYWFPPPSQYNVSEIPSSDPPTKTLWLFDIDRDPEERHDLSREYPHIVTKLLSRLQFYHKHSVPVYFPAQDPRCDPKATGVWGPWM

## CCCCC(=O)N(CCCCCCNC(=O)c1ccccc1)CCC(=O)Nc1ccc(OC2OC(C(=O)O)C(O)C(O)C2OS(=O)(=O)O)cc1 (stereo not drawn) [Alternative MPS-II]
[1]; [4]
  Enzymatic Activity: 6 umole/hr/L blood
[1]; [5]
  blood-no blood assay ratio: 53

## CCCCC(=O)N(CCCCCNC(=O)c1ccccc1)CCC(=O)Nc1ccc(OC2OC(CO)C(OS(=O)(=O)O)C(O)C2NC(C)=O)cc1 [Alternative MPS-VI, Sodium (2R,3R,4R,5R,6S)-5-acetamido-6(4(3-(N (5-benzamidopentyl)-pentanamido)propanamido)phenoxy)-4-hydroxy-2-(hydroxymethyl)tetrahydro-2H-pyran-3-yl sulfate]
[2]; [4]
  Enzymatic Activity: 1.5 umole/hr/L blood
[2]; [5]
  blood-no blood assay ratio: 77.9

## CC(=O)N(CCCCCCNC(=O)c1ccccc1)CCC(=O)Nc1ccc(OC2OC(C(=O)O)C(O)C(O)C2O)cc1 (stereo not drawn) [Alternative MPS-I]
[3]; 0.5 mM substrate, 3 mm dried blood spot punch, pH 4.0, 16 hours at 37 deg C
  Enzymatic Activity: 2.5 umole/hr/L blood
[3]; [5]
  blood-no blood assay ratio: 34
